Measurements: article PMC4917279 (Journal of Medicinal Chemistry, 2016)

How the values were obtained:
Assay in all cases: KINOMEscan
Type in all cases: binding
Conditions in all cases: read-out: %Ctrl @ 1000 nM
ASK1 = target: T1, ASK1 (Homo sapiens, UniProt Q99683)
T1 construct: purchased DiscoveRx KINOMEscan

DDR2 = target: T2, DDR2 (Homo sapiens, UniProt Q16832)
T2 construct: purchased DiscoveRx KINOMEscan

CSNK1G2 = target: T3, CSNK1G2 (Homo sapiens, UniProt P78368)
T3 construct: purchased DiscoveRx KINOMEscan

RIOK1 = target: T4, RIOK1 (Homo sapiens, UniProt Q9BRS2)
T4 construct: purchased DiscoveRx KINOMEscan
T4 sequence (Q9BRS2 whole entry): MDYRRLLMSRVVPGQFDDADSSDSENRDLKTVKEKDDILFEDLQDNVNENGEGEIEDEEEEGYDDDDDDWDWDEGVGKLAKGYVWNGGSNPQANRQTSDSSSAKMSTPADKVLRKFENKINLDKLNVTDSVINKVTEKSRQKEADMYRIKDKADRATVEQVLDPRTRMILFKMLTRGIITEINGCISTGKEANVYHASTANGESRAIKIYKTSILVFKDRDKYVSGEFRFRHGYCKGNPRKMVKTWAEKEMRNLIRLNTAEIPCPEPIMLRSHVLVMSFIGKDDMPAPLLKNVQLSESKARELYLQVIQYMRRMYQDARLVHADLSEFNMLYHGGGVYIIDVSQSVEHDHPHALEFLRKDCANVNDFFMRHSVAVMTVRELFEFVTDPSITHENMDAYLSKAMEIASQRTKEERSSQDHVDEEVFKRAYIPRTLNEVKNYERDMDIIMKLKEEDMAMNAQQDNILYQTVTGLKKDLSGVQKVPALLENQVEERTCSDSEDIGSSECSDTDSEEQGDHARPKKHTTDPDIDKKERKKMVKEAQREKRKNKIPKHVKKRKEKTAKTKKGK

DYRK1B = target: T5, DYRK1B (Homo sapiens, UniProt Q9Y463)
T5 construct: purchased DiscoveRx KINOMEscan

MARK3 = target: T6, MARK3 (Homo sapiens, UniProt P27448)
T6 construct: purchased DiscoveRx KINOMEscan

JNK3 = target: T7, JNK3 (Homo sapiens, UniProt P53779)
T7 construct: purchased DiscoveRx KINOMEscan

FGFR2 = target: T8, FGFR2 (Homo sapiens, UniProt P21802)
T8 construct: purchased DiscoveRx KINOMEscan

[1] = target: T9, ABL1(F317I)-nonphosphorylated (Homo sapiens, UniProt P00519, F317I)
T9 construct: purchased DiscoveRx (KINOMEscan service)
T9 sequence (P00519 whole entry F317I): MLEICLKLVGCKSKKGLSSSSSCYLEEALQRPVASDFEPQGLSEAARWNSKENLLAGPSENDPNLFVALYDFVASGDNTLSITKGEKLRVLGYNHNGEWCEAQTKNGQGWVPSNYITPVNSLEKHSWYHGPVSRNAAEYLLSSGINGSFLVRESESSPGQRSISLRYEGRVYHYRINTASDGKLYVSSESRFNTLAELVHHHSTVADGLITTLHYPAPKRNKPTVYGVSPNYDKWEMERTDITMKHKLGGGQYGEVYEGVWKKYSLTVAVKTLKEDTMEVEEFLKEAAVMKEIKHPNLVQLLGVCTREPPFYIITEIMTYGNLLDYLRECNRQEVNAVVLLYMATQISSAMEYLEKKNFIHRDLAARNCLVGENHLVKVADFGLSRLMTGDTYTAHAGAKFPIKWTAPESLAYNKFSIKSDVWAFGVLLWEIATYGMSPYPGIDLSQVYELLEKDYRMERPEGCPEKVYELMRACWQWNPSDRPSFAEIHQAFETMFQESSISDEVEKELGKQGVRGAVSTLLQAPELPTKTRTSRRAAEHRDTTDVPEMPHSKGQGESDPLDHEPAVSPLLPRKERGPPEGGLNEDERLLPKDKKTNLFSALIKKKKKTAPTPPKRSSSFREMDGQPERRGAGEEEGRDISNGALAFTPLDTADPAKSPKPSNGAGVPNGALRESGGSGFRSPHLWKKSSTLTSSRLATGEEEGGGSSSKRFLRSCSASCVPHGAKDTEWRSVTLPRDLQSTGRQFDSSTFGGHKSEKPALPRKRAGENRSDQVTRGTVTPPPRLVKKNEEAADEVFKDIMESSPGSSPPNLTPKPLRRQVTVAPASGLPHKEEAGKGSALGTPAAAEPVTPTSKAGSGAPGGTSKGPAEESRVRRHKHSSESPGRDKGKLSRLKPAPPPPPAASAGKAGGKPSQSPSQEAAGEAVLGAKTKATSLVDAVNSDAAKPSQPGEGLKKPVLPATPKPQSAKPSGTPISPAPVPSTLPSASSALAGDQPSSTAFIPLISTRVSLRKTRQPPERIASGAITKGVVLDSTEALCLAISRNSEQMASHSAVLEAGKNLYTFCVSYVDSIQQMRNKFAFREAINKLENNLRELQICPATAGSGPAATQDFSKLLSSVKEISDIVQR

FAK = target: T10, FAK (Homo sapiens, UniProt Q05397)
T10 construct: purchased DiscoveRx KINOMEscan

PIP5K2C = target: T11, PIP5K2C (Homo sapiens, UniProt Q8TBX8)
T11 construct: purchased DiscoveRx KINOMEscan

LZK = target: T12, LZK (Homo sapiens, UniProt O43283)
T12 construct: purchased DiscoveRx KINOMEscan

[2] = target: T13, RSK4(Kin.Dom.2-C-terminal) (Homo sapiens, UniProt Q9UK32)
T13 construct: RSK4(Kin.Dom.2-C-terminal); purchased DiscoveRx KINOMEscan

ABL1-nonphosphorylated = target: T14, ABL1-nonphosphorylated (Homo sapiens, UniProt P00519)
T14 construct: purchased DiscoveRx
T14 sequence (P00519 whole entry): as the sequence (P00519 whole entry F317I) above, with I317F counted along it

RIOK3 = target: T15, RIOK3 (Homo sapiens, UniProt O14730)
T15 construct: purchased DiscoveRx KINOMEscan

KIT = target: T16, KIT (Homo sapiens, UniProt P10721)
T16 construct: purchased DiscoveRx KINOMEscan

PFTAIRE2 = target: T17, PFTAIRE2 (Homo sapiens, UniProt Q96Q40)
T17 construct: purchased DiscoveRx KINOMEscan

MEK1 = target: T18, MEK1 (Homo sapiens, UniProt Q02750)
T18 construct: purchased DiscoveRx KINOMEscan

PIK3CD = target: T19, PIK3CD (Homo sapiens, UniProt O00329)
T19 construct: purchased DiscoveRx KINOMEscan

PLK2 = target: T20, PLK2 (Homo sapiens, UniProt Q9NYY3)
T20 construct: purchased DiscoveRx KINOMEscan

[3] = target: T21, JAK1(JH1domain-catalytic) (Homo sapiens, UniProt P23458)
T21 construct: JAK1(JH1domain-catalytic); purchased DiscoveRx KINOMEscan

EPHB1 = target: T22, EPHB1 (Homo sapiens, UniProt P54762)
T22 construct: purchased DiscoveRx KINOMEscan

CDK4-cyclinD3 = target: T23, CDK4-cyclinD3 (Homo sapiens, UniProt P11802)
T23 construct: purchased DiscoveRx KINOMEscan

EPHB4 = target: T24, EPHB4 (Homo sapiens, UniProt P54760)
T24 construct: purchased DiscoveRx KINOMEscan

MKNK1 = target: T25, MKNK1 (Homo sapiens, UniProt Q9BUB5)
T25 construct: purchased DiscoveRx KINOMEscan

CLK2 = target: T26, CLK2 (Homo sapiens, UniProt P49760)
T26 construct: purchased DiscoveRx KINOMEscan

WNK3 = target: T27, WNK3 (Homo sapiens, UniProt Q9BYP7)
T27 construct: purchased DiscoveRx KINOMEscan

SG110 = target: T28, SG110 (Homo sapiens, UniProt P0C264)
T28 construct: purchased DiscoveRx KINOMEscan

DAPK2 = target: T29, DAPK2 (Homo sapiens, UniProt Q9UIK4)
T29 construct: purchased DiscoveRx KINOMEscan

EGFR(L858R,T790M) = target: T30, EGFR(L858R,T790M) (Homo sapiens, UniProt P00533, L858R/T790M)
T30 construct: purchased DiscoveRx KINOMEscan

MYLK2 = target: T31, MYLK2 (Homo sapiens, UniProt Q9H1R3)
T31 construct: purchased DiscoveRx KINOMEscan
T31 sequence (Q9H1R3 whole entry): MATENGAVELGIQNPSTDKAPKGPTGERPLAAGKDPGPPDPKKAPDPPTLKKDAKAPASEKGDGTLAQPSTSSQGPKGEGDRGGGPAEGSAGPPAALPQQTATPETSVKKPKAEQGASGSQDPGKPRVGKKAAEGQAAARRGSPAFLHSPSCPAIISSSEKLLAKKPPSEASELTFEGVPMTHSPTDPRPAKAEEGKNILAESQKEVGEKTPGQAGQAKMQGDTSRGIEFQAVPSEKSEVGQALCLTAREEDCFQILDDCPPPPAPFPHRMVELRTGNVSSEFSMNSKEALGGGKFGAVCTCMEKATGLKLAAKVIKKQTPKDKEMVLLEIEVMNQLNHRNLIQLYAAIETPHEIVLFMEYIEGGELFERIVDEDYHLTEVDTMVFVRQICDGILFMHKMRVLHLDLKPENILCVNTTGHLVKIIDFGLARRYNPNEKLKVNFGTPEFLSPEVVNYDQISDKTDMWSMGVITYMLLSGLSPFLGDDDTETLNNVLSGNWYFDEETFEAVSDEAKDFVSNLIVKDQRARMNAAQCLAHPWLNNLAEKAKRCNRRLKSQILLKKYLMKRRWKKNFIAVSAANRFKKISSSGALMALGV

[4] = target: RPS6KA4(Kin.Dom.2-C-terminal) (Homo sapiens, UniProt O75676)
MLK3 = target: T32, MLK3 (Homo sapiens, UniProt Q16584)
T32 construct: purchased DiscoveRx KINOMEscan
T32 sequence (Q16584 whole entry): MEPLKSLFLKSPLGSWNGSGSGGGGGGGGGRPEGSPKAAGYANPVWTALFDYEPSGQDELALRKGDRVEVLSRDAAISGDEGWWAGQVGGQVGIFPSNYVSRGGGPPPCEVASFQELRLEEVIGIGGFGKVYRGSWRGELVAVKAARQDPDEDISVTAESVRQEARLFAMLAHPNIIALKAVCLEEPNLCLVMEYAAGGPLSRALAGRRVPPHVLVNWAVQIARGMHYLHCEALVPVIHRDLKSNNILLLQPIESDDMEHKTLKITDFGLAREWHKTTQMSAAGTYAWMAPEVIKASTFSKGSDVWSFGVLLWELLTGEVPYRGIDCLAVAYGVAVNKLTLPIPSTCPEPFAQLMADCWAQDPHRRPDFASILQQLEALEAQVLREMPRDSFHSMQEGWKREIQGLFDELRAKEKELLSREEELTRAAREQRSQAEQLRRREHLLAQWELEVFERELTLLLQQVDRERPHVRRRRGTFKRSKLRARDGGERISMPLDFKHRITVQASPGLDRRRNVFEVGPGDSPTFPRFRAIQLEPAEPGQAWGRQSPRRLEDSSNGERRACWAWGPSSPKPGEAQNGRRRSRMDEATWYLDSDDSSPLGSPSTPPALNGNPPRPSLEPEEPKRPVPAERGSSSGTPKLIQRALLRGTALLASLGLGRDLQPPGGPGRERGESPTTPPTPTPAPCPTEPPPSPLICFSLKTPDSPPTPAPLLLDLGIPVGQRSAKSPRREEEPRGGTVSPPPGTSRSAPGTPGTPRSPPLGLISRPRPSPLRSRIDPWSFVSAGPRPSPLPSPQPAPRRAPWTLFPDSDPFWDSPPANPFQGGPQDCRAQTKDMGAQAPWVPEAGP

PIK3C2G = target: T33, PIK3C2G (Homo sapiens, UniProt O75747)
T33 construct: purchased DiscoveRx KINOMEscan

CAMK2G = target: T34, CAMK2G (Homo sapiens, UniProt Q13555)
T34 construct: purchased DiscoveRx KINOMEscan

GRK4 = target: T35, GRK4 (Homo sapiens, UniProt P32298)
T35 construct: purchased DiscoveRx KINOMEscan

[5] = target: RPS6KA5(Kin.Dom.2-C-terminal) (Homo sapiens, UniProt O75582)
CSK = target: T36, CSK (Homo sapiens, UniProt P41240)
T36 construct: purchased DiscoveRx KINOMEscan

LIMK1 = target: T37, LIMK1 (Homo sapiens, UniProt P53667)
T37 construct: purchased DiscoveRx KINOMEscan

MKK7 = target: T38, MKK7 (Homo sapiens, UniProt O14733)
T38 construct: purchased DiscoveRx KINOMEscan

DRAK2 = target: T39, DRAK2 (Homo sapiens, UniProt O94768)
T39 construct: purchased DiscoveRx KINOMEscan
T39 sequence (O94768 whole entry): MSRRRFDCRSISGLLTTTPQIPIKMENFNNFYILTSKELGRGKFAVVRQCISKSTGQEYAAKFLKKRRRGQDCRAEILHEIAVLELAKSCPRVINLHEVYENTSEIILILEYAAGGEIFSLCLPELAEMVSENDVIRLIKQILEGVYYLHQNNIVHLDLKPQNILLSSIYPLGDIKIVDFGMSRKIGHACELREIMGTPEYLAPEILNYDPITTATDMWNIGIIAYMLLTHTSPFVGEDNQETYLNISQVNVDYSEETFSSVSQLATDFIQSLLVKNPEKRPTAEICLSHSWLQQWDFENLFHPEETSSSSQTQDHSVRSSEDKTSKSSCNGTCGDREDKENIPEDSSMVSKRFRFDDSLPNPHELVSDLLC

BRAF = target: T40, BRAF (Homo sapiens, UniProt P15056)
T40 construct: purchased DiscoveRx KINOMEscan

ERBB3 = target: T41, ERBB3 (Homo sapiens, UniProt P21860)
T41 construct: purchased DiscoveRx KINOMEscan
T41 sequence (P21860 20-1342): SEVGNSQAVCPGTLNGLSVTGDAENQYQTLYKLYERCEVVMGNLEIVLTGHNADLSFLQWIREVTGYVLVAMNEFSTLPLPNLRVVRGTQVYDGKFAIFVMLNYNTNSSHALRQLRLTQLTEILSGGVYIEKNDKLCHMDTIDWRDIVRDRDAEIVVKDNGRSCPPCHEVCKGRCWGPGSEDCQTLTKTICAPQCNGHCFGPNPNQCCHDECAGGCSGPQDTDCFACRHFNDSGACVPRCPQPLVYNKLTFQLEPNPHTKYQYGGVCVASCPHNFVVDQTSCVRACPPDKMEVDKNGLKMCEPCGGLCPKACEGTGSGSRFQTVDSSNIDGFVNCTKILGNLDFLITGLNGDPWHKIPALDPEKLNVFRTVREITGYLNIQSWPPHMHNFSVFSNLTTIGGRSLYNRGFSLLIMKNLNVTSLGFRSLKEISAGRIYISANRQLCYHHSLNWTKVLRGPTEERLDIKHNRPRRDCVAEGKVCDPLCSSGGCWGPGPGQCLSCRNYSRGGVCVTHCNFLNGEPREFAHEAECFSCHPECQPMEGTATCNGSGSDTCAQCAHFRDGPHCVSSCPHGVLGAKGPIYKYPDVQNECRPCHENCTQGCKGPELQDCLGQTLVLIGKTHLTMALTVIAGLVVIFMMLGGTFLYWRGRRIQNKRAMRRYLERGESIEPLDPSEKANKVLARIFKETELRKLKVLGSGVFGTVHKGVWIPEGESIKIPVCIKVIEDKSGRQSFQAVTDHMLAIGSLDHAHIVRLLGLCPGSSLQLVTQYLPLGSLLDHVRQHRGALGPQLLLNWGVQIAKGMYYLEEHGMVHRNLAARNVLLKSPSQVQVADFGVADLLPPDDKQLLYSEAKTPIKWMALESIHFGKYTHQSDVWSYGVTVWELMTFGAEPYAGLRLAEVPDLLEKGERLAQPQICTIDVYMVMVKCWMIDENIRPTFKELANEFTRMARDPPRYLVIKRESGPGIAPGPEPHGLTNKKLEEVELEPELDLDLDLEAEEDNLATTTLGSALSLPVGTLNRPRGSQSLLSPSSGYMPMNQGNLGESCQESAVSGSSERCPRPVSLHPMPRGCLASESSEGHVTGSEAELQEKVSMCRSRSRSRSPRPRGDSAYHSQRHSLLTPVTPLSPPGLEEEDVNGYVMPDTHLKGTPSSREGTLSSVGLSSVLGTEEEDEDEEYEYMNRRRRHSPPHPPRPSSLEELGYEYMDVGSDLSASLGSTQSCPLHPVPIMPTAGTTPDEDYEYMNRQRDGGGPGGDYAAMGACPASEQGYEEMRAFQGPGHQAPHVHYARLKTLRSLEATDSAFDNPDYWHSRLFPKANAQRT

Compound: CCN(C(=O)CO)[C@H]1CN(/C(=N\C#N)Nc2cccc(OC(F)F)c2)N=C1c1ccc(Cl)c(Cl)c1 [(S)-4]
- remaining binding at 1 µM (ASK1): 88%
- remaining binding at 1 µM (DDR2): 100%
- remaining binding at 1 µM (CSNK1G2): 94%
- remaining binding at 1 µM (RIOK1): 77%
- remaining binding at 1 µM (DYRK1B): 74%
- remaining binding at 1 µM (MARK3): 69%
- remaining binding at 1 µM (JNK3): 100%
- remaining binding at 1 µM (FGFR2): 86%
- remaining binding at 1 µM [1]: 100%
- remaining binding at 1 µM (FAK): 99%
- remaining binding at 1 µM (PIP5K2C): 85%
- remaining binding at 1 µM (LZK): 83%
- remaining binding at 1 µM [2]: 100%
- remaining binding at 1 µM (ABL1-nonphosphorylated): 79%
- remaining binding at 1 µM (RIOK3): 46%
- remaining binding at 1 µM (KIT): 100%
- remaining binding at 1 µM (PFTAIRE2): 100%
- remaining binding at 1 µM (MEK1): 98%
- remaining binding at 1 µM (PIK3CD): 81%
- remaining binding at 1 µM (PLK2): 83%
- remaining binding at 1 µM [3]: 85%
- remaining binding at 1 µM (EPHB1): 94%
- remaining binding at 1 µM (CDK4-cyclinD3): 100%
- remaining binding at 1 µM (EPHB4): 97%
- remaining binding at 1 µM (MKNK1): 100%
- remaining binding at 1 µM (CLK2): 97%
- remaining binding at 1 µM (WNK3): 93%
- remaining binding at 1 µM (SG110): 92%
- remaining binding at 1 µM (DAPK2): 100%
- remaining binding at 1 µM (EGFR(L858R,T790M)): 100%
- remaining binding at 1 µM (MYLK2): 100%
- remaining binding at 1 µM [4]: 93%
- remaining binding at 1 µM (MLK3): 69%
- remaining binding at 1 µM (PIK3C2G): 77%
- remaining binding at 1 µM (CAMK2G): 89%
- remaining binding at 1 µM (GRK4): 98%
- remaining binding at 1 µM [5]: 99%
- remaining binding at 1 µM (CSK): 91%
- remaining binding at 1 µM (LIMK1): 100%
- remaining binding at 1 µM (MKK7): 99%
- remaining binding at 1 µM (DRAK2): 100%
- remaining binding at 1 µM (BRAF): 100%
- remaining binding at 1 µM (ERBB3): 84%
